In ChEMBL document CHEMBL1201862, “PubChem BioAssay data set” (2004):
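Following 48 hours of exposure in 96-well plates, responses at five concentrations were used to interpolate endpoints linearly. GI50 is the concentration that inhibits growth by half.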 Active and inactive are the calls of the source. Cut-off read from the data, not from the text of the source: active = GI50 up to about 1.1 µM and inactive = higher.

Experiments:
Assay in all cases: NCI anticancer screen, dose series, 48 h
M19-MEL = tested on: M19-MEL
KM12 = tested on: KM12
SF-295 = tested on: SF-295
U-251 = tested on: U-251
DMS-114 = tested on: DMS-114
Malme-3M = tested on: Malme-3M
HT-29 = tested on: HT-29
UACC-257 = tested on: UACC-257
SNB-78 = tested on: SNB-78
LXFL 529 = tested on: LXFL 529
UACC-62 = tested on: UACC-62
SW-620 = tested on: SW-620
OVCAR-3 = tested on: OVCAR-3
SNB-19 = tested on: SNB-19
LOX IMVI = tested on: LOX IMVI
M14 = tested on: M14
A549 = tested on: A549
NCI-H226 = tested on: NCI-H226
MOLT-4 = tested on: MOLT-4
SN12C = tested on: SN12C
HCC 2998 = tested on: HCC 2998
K562 = tested on: K562
OVCAR-8 = tested on: OVCAR-8
HCT-116 = tested on: HCT-116
CCRF-CEM = tested on: CCRF-CEM
KM-20L2 = tested on: KM-20L2
SF-268 = tested on: SF-268
CAKI-1 = tested on: CAKI-1
SK-MEL-2 = tested on: SK-MEL-2
SK-MEL-28 = tested on: SK-MEL-28
HCT-15 = tested on: HCT-15
SK-MEL-5 = tested on: SK-MEL-5
A498 = tested on: A498
IGROV-1 = tested on: IGROV-1
SF-539 = tested on: SF-539
ACHN = tested on: ACHN
COLO 205 = tested on: COLO 205
NCI-H460 = tested on: NCI-H460
NCI-H23 = tested on: NCI-H23
UO-31 = tested on: UO-31
SNB-75 = tested on: SNB-75
RPMI-8226 = tested on: RPMI-8226
NCI-H522 = tested on: NCI-H522
SK-OV-3 = tested on: SK-OV-3
SR = tested on: SR
HL-60 = tested on: HL-60
EKVX = tested on: EKVX
HOP-62 = tested on: HOP-62
HOP-18 = tested on: HOP-18
DLD-1 = tested on: DLD-1
OVCAR-5 = tested on: OVCAR-5
OVCAR-4 = tested on: OVCAR-4
DMS-273 = tested on: DMS-273
786-0 = tested on: 786-0
TK-10 = tested on: TK-10
HOP-92 = tested on: HOP-92
RXF 393 = tested on: RXF 393
XF498 = tested on: XF498

C/C(=C1/N=C(c2cc([N+](=O)[O-])ccc2Cl)N(c2ccc(Br)cc2)C1=O)c1cc2ccccc2oc1=O
GI50 (M19-MEL): 5.89 µM (inactive)
GI50 (KM12): 21.8 µM (inactive)
GI50 (SF-295): 80.5 µM (inactive)
GI50 (U-251): 48.3 µM (inactive)
GI50 (DMS-114): 10.1 µM (inactive)
GI50 (Malme-3M): 34.8 µM (inactive)
GI50 (HT-29): 42.1 µM (inactive)
GI50 (UACC-257): 45.8 µM (inactive)
GI50 (SNB-78): 31.6 µM (inactive)
GI50 (LXFL 529): 6.78 µM (inactive)
GI50 (UACC-62): 18.2 µM (inactive)
GI50 (SW-620): 34.2 µM (inactive)
GI50 (OVCAR-3): 49.2 µM (inactive)
GI50 (SNB-19): 55.8 µM (inactive)
GI50 (LOX IMVI): 17.3 µM (inactive)
GI50 (M14): 25.9 µM (inactive)
GI50 (A549): 25.9 µM (inactive)
GI50 (NCI-H226): > 100 µM (inactive)
GI50 (MOLT-4): 20.2 µM (inactive)
GI50 (SN12C): 20.3 µM (inactive)
GI50 (HCC 2998): 24 µM (inactive)
GI50 (K562): 34.4 µM (inactive)
GI50 (OVCAR-8): 81.8 µM (inactive)
GI50 (HCT-116): 24.5 µM (inactive)
GI50 (CCRF-CEM): 16.5 µM (inactive)
GI50 (KM-20L2): 17.6 µM (inactive)
GI50 (SF-268): 39.6 µM (inactive)
GI50 (CAKI-1): 12.9 µM (inactive)
GI50 (SK-MEL-2): 22.6 µM (inactive)
GI50 (SK-MEL-28): 60.8 µM (inactive)
GI50 (HCT-15): 8.22 µM
GI50 (SK-MEL-5): 23.4 µM (inactive)
GI50 (A498): 20.7 µM (inactive)
GI50 (IGROV-1): 26.1 µM (inactive)
GI50 (SF-539): 30.1 µM (inactive)
GI50 (ACHN): 6 µM (inactive)
GI50 (COLO 205): 3.38 µM (inactive)
GI50 (NCI-H460): 26.3 µM (inactive)
GI50 (NCI-H23): 38.3 µM (inactive)
GI50 (UO-31): 23.7 µM (inactive)
GI50 (SNB-75): 33.8 µM (inactive)
GI50 (RPMI-8226): 26.6 µM (inactive)
GI50 (NCI-H522): 10.6 µM (inactive)
GI50 (SK-OV-3): 90.4 µM (inactive)
GI50 (SR): 14.9 µM (inactive)
GI50 (HL-60): 23.7 µM (inactive)
GI50 (EKVX): > 100 µM (inactive)
GI50 (HOP-62): > 100 µM (inactive)
GI50 (HOP-18): > 100 µM (inactive)
GI50 (DLD-1): 22.1 µM (inactive)
GI50 (OVCAR-5): > 100 µM (inactive)
GI50 (OVCAR-4): 18.3 µM (inactive)

CCc1cc2c(c3[nH]ccc13)[C@@H](C)C[C@H]2C
GI50 (M19-MEL): 17.2 µM (inactive)
GI50 (KM12): 19.1 µM (inactive)
GI50 (SF-295): 18.8 µM (inactive)
GI50 (U-251): 16.4 µM (inactive)
GI50 (DMS-114): 19.9 µM (inactive)
GI50 (Malme-3M): 18.6 µM (inactive)
GI50 (HT-29): 19.7 µM (inactive)
GI50 (UACC-257): 19.9 µM (inactive)
GI50 (SNB-78): 16.4 µM (inactive)
GI50 (LXFL 529): 18 µM (inactive)
GI50 (DMS-273): 18 µM (inactive)
GI50 (UACC-62): 16.9 µM (inactive)
GI50 (SW-620): 19.8 µM (inactive)
GI50 (OVCAR-3): 20 µM (inactive)
GI50 (786-0): 15 µM (inactive)
GI50 (LOX IMVI): 12.7 µM (inactive)
GI50 (M14): 17.2 µM (inactive)
GI50 (A549): 19.6 µM (inactive)
GI50 (NCI-H226): 16.4 µM (inactive)
GI50 (MOLT-4): 14.3 µM (inactive)
GI50 (SN12C): 15.6 µM (inactive)
GI50 (HCC 2998): 21.2 µM (inactive)
GI50 (K562): 21.6 µM (inactive)
GI50 (OVCAR-8): 19.7 µM (inactive)
GI50 (HCT-116): 16 µM (inactive)
GI50 (CCRF-CEM): 20.4 µM (inactive)
GI50 (CAKI-1): 15.8 µM (inactive)
GI50 (TK-10): 19.5 µM (inactive)
GI50 (SK-MEL-28): 16.1 µM (inactive)
GI50 (HCT-15): 14.4 µM
GI50 (SK-MEL-5): 16.9 µM (inactive)
GI50 (A498): 15.6 µM (inactive)
GI50 (IGROV-1): 19.4 µM (inactive)
GI50 (SF-539): > 10 µM (inactive)
GI50 (ACHN): 16.7 µM (inactive)
GI50 (COLO 205): 19.9 µM (inactive)
GI50 (NCI-H460): 14.9 µM (inactive)
GI50 (NCI-H23): 17.8 µM (inactive)
GI50 (UO-31): 18.3 µM (inactive)
GI50 (SNB-75): 17.5 µM (inactive)
GI50 (HOP-92): 16.2 µM (inactive)
GI50 (RPMI-8226): 20.1 µM (inactive)
GI50 (NCI-H522): 16.2 µM (inactive)
GI50 (SK-OV-3): 30.5 µM (inactive)
GI50 (RXF 393): 13.8 µM (inactive)
GI50 (HL-60): 21.8 µM (inactive)
GI50 (EKVX): 20.7 µM (inactive)
GI50 (HOP-18): 18.4 µM (inactive)
GI50 (DLD-1): 16.4 µM (inactive)

CC(C)OP(=O)(OC(C)C)/C(I)=N/Nc1ccc([N+](=O)[O-])cc1
GI50 (M19-MEL): > 100 µM (inactive)
GI50 (KM12): > 100 µM (inactive)
GI50 (SF-295): > 100 µM (inactive)
GI50 (U-251): > 100 µM (inactive)
GI50 (DMS-114): > 100 µM (inactive)
GI50 (Malme-3M): > 100 µM (inactive)
GI50 (HT-29): > 100 µM (inactive)
GI50 (UACC-257): > 100 µM (inactive)
GI50 (SNB-78): > 100 µM (inactive)
GI50 (LXFL 529): > 100 µM (inactive)
GI50 (DMS-273): > 100 µM (inactive)
GI50 (UACC-62): > 100 µM (inactive)
GI50 (SW-620): > 100 µM (inactive)
GI50 (OVCAR-3): > 100 µM (inactive)
GI50 (SNB-19): > 100 µM (inactive)
GI50 (M14): > 100 µM (inactive)
GI50 (A549): > 100 µM (inactive)
GI50 (MOLT-4): > 100 µM (inactive)
GI50 (SN12C): > 100 µM (inactive)
GI50 (HCC 2998): > 100 µM (inactive)
GI50 (K562): > 100 µM (inactive)
GI50 (OVCAR-8): > 100 µM (inactive)
GI50 (HCT-116): > 100 µM (inactive)
GI50 (CCRF-CEM): > 100 µM (inactive)
GI50 (KM-20L2): > 100 µM (inactive)
GI50 (SF-268): > 100 µM (inactive)
GI50 (CAKI-1): > 100 µM (inactive)
GI50 (SK-MEL-2): > 100 µM (inactive)
GI50 (TK-10): > 100 µM (inactive)
GI50 (SK-MEL-28): > 100 µM (inactive)
GI50 (HCT-15): > 100 µM
GI50 (SK-MEL-5): > 100 µM (inactive)
GI50 (A498): > 100 µM (inactive)
GI50 (IGROV-1): > 100 µM (inactive)
GI50 (SF-539): > 100 µM (inactive)
GI50 (ACHN): > 100 µM (inactive)
GI50 (COLO 205): > 100 µM (inactive)
GI50 (NCI-H460): > 100 µM (inactive)
GI50 (NCI-H23): > 100 µM (inactive)
GI50 (UO-31): 98.4 µM (inactive)
GI50 (SNB-75): > 100 µM (inactive)
GI50 (XF498): > 100 µM (inactive)
GI50 (HOP-92): > 100 µM (inactive)
GI50 (RPMI-8226): > 100 µM (inactive)
GI50 (NCI-H522): > 100 µM (inactive)
GI50 (SK-OV-3): > 100 µM (inactive)
GI50 (SR): > 100 µM (inactive)
GI50 (HL-60): > 100 µM (inactive)
GI50 (EKVX): > 100 µM (inactive)
GI50 (HOP-62): > 100 µM (inactive)
GI50 (DLD-1): > 100 µM (inactive)
GI50 (OVCAR-5): > 100 µM (inactive)
GI50 (OVCAR-4): > 100 µM (inactive)

CC[C@@]1(O)C[C@H](OC2CC(N(C)C)C(OC3CC(O)C(OC4CCC(=O)C(C)O4)C(C)O3)C(C)O2)c2c(cc3c(c2O)C(=O)c2c(O)cccc2C3=O)[C@H]1C(=O)OC (some centres not stated)
GI50 (HT-29): 0.0147 µM (active)
GI50 (LXFL 529): 0.00904 µM (active)
GI50 (CCRF-CEM): 0.0184 µM (active)
GI50 (KM-20L2): 0.0128 µM (active)
GI50 (RPMI-8226): 0.0278 µM (active)
GI50 (HL-60): 0.0317 µM (active)
GI50 (HOP-18): 0.0736 µM (active)
GI50 (DLD-1): 0.0327 µM (active)
